We go through 15 compounds from US12559506B2, “Indazole based compounds and associated methods of use” (Arvinas Operations, Inc., priority 2021, dated 2026).

Where two headings read alike, the source gives them in different places.

The target of one experiment is T1, wildtype LRRK2 (Homo sapiens, UniProt Q5S007).
T1 construct: expressed in transfected cells; host or cells: HEK293 (ATCC CRL-1573), transient transfection, mammalian expression vector with ubiquitin promoter
In words: LRRK2 degradation assay, HiBit-tagged wildtype LRRK2 expressed from plasmid in HEK293 cells (Nano-Glo Dual-Luciferase). The format is cell-based. The note with it: 24 hours; for Dmax: read-out: **WT Dmax (%); for DC50: read-out: *WT DC50. An outline of the steps:
(§1)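 Degradation read as Nano-Glo HiBiT signal over firefly luciferase (cell number/viability) after 24 h compound exposure of transiently transfected HEK293 expressing C-terminally HiBiT-tagged wildtype or G2019S LRRK2. Data as % DMSO; DC50/Dmax fitted per plate, triplicate plates repeated twice.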
On the technique in general: With HiBiT, luminescence reflects the tagged protein that the partner subunit can reach.

A further experiment has as its target T2, G2019S LRRK2 (Homo sapiens, UniProt Q5S007, G2019S).
T2 construct: expressed in transfected cells; host or cells: HEK293 (ATCC CRL-1573), transient transfection, mammalian expression vector with ubiquitin promoter
In words: LRRK2 degradation assay, HiBit-tagged G2019S LRRK2 expressed from plasmid in HEK293 cells (Nano-Glo Dual-Luciferase). The class given is cell-based. The note with it: 24 hours. An outline of the steps: as §1

Setting [1] is: HiBit-tagged wildtype LRRK2 in HEK293 cells.
Setting [2] is: HiBit-tagged G2019S LRRK2 in HEK293 cells.
The mark [3] stands for this setting: HiBit-tagged wildtype LRRK2, HEK293 cells.
The mark [4] stands for this setting: HiBit-tagged G2019S LRRK2, HEK293 cells.

T2 sequence (Q5S007 whole entry G2019S): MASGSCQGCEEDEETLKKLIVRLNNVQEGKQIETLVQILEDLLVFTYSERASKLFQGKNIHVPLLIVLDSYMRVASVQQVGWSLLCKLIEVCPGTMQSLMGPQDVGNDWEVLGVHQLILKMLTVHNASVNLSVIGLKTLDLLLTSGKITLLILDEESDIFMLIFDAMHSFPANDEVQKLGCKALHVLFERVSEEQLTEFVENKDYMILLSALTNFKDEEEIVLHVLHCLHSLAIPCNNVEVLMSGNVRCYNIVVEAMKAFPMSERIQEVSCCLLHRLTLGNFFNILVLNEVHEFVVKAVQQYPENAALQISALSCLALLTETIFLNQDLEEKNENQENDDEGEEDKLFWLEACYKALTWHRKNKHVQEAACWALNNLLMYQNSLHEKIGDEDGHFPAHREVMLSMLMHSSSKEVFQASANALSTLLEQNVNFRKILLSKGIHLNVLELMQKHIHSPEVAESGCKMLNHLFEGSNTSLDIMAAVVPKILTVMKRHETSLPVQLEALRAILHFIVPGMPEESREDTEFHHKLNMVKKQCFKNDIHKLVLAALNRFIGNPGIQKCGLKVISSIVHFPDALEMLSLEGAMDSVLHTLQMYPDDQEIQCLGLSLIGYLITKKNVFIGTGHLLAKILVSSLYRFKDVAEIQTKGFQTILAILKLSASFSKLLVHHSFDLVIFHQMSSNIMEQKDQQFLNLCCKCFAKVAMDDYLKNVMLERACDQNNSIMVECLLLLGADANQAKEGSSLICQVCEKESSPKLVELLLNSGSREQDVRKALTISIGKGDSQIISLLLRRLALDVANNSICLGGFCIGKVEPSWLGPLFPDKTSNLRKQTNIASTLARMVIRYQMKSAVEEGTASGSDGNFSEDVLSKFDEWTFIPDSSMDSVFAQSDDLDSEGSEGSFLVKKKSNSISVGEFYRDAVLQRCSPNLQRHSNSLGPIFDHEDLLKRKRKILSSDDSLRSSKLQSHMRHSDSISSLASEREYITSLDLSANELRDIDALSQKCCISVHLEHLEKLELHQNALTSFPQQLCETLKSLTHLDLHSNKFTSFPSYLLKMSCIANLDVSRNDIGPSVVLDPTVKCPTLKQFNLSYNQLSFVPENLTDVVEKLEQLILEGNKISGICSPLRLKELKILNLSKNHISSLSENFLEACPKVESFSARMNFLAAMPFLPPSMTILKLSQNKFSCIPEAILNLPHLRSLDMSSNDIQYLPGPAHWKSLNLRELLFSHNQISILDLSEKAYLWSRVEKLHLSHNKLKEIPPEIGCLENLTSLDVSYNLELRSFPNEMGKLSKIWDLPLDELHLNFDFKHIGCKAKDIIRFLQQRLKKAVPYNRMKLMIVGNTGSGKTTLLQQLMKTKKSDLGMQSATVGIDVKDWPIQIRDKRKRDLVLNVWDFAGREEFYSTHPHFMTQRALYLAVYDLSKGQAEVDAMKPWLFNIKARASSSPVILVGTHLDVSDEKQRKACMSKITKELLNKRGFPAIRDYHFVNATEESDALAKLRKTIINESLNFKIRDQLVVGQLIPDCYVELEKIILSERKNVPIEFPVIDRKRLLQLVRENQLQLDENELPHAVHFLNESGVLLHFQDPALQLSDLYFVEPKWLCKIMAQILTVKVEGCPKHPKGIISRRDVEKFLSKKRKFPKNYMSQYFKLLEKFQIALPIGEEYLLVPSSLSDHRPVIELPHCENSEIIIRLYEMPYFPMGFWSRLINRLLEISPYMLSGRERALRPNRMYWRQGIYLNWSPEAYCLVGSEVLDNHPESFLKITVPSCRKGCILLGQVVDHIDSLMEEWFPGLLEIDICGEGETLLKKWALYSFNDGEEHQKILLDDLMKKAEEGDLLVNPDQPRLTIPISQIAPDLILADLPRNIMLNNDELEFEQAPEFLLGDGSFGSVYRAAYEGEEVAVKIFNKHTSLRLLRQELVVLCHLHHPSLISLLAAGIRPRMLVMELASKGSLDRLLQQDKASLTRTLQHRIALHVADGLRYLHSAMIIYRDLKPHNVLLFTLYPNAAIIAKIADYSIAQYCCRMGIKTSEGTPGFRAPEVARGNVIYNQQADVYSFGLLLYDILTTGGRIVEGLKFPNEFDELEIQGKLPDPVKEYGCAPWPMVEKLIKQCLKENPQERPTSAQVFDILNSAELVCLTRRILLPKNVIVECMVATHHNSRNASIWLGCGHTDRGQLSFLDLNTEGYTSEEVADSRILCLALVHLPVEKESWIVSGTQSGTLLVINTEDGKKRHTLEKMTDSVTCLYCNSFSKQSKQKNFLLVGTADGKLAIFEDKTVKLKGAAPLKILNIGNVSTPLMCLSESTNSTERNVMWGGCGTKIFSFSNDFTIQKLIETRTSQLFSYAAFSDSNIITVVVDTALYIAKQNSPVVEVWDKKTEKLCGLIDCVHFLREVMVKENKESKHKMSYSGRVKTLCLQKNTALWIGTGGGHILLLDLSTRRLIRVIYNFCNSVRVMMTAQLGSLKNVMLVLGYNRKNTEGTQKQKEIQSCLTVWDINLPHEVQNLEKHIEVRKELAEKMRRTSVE
T1 sequence (Q5S007 whole entry): as the sequence (Q5S007 whole entry G2019S) above, with S2019G counted along it

The Dmax is the largest share of the target that was removed. For orientation: DC50 means the midpoint of the concentration-degradation curve. `CC1(Oc2ccc3[nH]nc(-c4ccnc(N5CCC(C(=O)N6CCC(CN7CCN(c8ccc9c(c8)C(=O)N(C8CCC(=O)NC8=O)C9=O)CC7)CC6)CC5)c4)c3c2)CC1` (stereo not shown) [Compound 87, 2-(2,6-dioxo-3-piperidyl)-5-[4-[[1-[1-[4-[5-(1-methylcyclopropoxy)-1H-indazol-3-yl]-2-pyridyl]piperidine-4-carbonyl]-4-piperidyl]methyl]piperazin-1-yl]isoindoline-1,3-dione]: on wildtype LRRK2 (setting [1]), the greatest degradation seen (Dmax) was under 50% and the 50% degradation concentration (DC50) was under 10 nM. At G2019S LRRK2 (setting [2]), the 50% degradation concentration (DC50) is under 10 nM and the Dmax is under 50%.
On to `C[C@H]1CN(c2cc(-c3n[nH]c4ccc(OC5(C)CC5)cc34)ncn2)CCN1CC1CCN(CCCNc2cccc3c2C(=O)N(C2CCC(=O)NC2=O)C3=O)CC1` (stereo partly drawn) [Compound 140, 2-(2,6-dioxo-3-piperidyl)-4-[3-[4-[[(2S)-2-methyl-4-[6-[5-(1-methylcyclopropoxy)-2H-indazol-3-yl]pyrimidin-4-yl]piperazin-1-yl]methyl]-1-piperidyl]propylamino]isoindoline-1,3-dione], for which, on wildtype LRRK2 (setting [1]), the Dmax is under 50% and the DC50 was under 10 nM. At G2019S LRRK2 (setting [2]), this compound had a half-maximal degradation concentration (DC50) of under 10 nM and a maximal degradation (Dmax) of under 50%.
For the compound `CC1(Oc2ccc3[nH]nc(-c4cc(N5CCO[C@H](CCN6CCN(CC7CCN(c8ccc9c(c8)C(=O)N(C8CCC(=O)NC8=O)C9=O)CC7)CC6)C5)ncn4)c3c2)CC1` (stereo partly drawn) [Compound 155, 2-(2,6-dioxopiperidin-3-yl)-5-{4-[(4-{2-[(2R)-4-{6-[5-(1-methylcyclopropoxy)-1H-indazol-3-yl]pyrimidin-4-yl}morpholin-2-yl]ethyl}piperazin-1-yl)methyl]piperidin-1-yl}-2,3-dihydro-1H-isoindole-1,3-dione], at wildtype LRRK2 (setting [3]), the Dmax lay within 50 to 70% and the DC50 was under 10 nM. At G2019S LRRK2 (setting [4]), this compound registered a half-maximal degradation concentration (DC50) of under 10 nM and a Dmax of 50 to 70%.
Take `CC1(Oc2ccc3[nH]nc(-c4ccnc(N5CC(CN6CCN(CC7CCN(c8ccc9c(c8)C(=O)N(C8CCC(=O)NC8=O)C9=O)CC7)CC6)C5)c4)c3c2)CC1` (stereo not shown) [Compound 128, 2-(2,6-dioxopiperidin-3-yl)-5-[4-({4-[(1-{4-[5-(1-methylcyclopropoxy)-1H-indazol-3-yl]pyridin-2-yl}azetidin-3-yl)methyl]piperazin-1-yl}methyl)piperidin-1-yl]-2,3-dihydro-1H-isoindole-1,3-dione]: at wildtype LRRK2 (setting [1]), the Dmax lay in the range of 50 to 70% and the DC50 is under 10 nM. Also, at G2019S LRRK2 (setting [2]), the DC50 was under 10 nM and the Dmax was in the range of 50 to 70%.
For the compound `CC1(Oc2ccc3[nH]nc(-c4cc(N5CCC(O[C@H]6CC[C@H](OC7CCN(c8ccc9c(c8)C(=O)N(C8CCC(=O)NC8=O)C9=O)CC7)CC6)CC5)ncn4)c3c2)CC1` (stereo partly shown) [Compound 108, 2-(2,6-dioxo-3-piperidyl)-5-[4-[4-[[1-[6-[5-(1-methylcyclopropoxy)-1H-indazol-3-yl]pyrimidin-4-yl]-4-piperidyl]oxy]cyclohexoxy]-1-piperidyl]isoindoline-1,3-dione], on wildtype LRRK2 (setting [1]), the Dmax was 50 to 70% and the half-maximal degradation concentration (DC50) is 10 to 50 nM. On G2019S LRRK2 (setting [2]), this compound displayed a half-maximal degradation concentration (DC50) of 10 to 50 nM and a Dmax of under 50%.
For the compound `CC1(Oc2ccc3n[nH]c(-c4cc(N5CCN(C(=O)C6CCN(CC7CCN(c8ccc9c(c8)C(=O)N(C8CCC(=O)NC8=O)C9=O)CC7)CC6)CC5)ncn4)c3c2)CC1` (stereo not shown) [Compound 84, 2-(2,6-dioxo-3-piperidyl)-5-[4-[[4-[4-[6-[5-(1-methylcyclopropoxy)-2H-indazol-3-yl]pyrimidin-4-yl]piperazine-1-carbonyl]-1-piperidyl]methyl]-1-piperidyl]isoindoline-1,3-dione], at wildtype LRRK2 (setting [1]), the Dmax lay within 50 to 70% and the 50% degradation concentration (DC50) is under 10 nM. Besides, at G2019S LRRK2 (setting [2]), the DC50 was under 10 nM and the maximal degradation (Dmax) is under 50%.
In the case of `CC1(Oc2ccc3[nH]nc(-c4cc(N5CCN(CC6CCN(C(=O)C7CCN(c8ccc9c(c8)C(=O)N(C8CCC(=O)NC8=O)C9=O)CC7)CC6)CC5)ncn4)c3c2)CC1` (stereo not shown) [Compound 90, 2-(2,6-dioxopiperidin-3-yl)-5-(4-{4-[(4-{6-[5-(1-methylcyclopropoxy)-1H-indazol-3-yl]pyrimidin-4-yl}piperazin-1-yl)methyl]piperidine-1-carbonyl}piperidin-1-yl)-2,3-dihydro-1H-isoindole-1,3-dione], at wildtype LRRK2 (setting [1]), the Dmax is under 50% and the DC50 was under 10 nM. Further, on G2019S LRRK2 (setting [2]), the half-maximal degradation concentration (DC50) is under 10 nM and the maximal degradation (Dmax) is 50 to 70%.
On to `CC1(Oc2ccc3[nH]nc(-c4cc(N5CCC(CN6CC7(CN(CC8CCN(c9ccc%10c(c9)C(=O)N(C9CCC(=O)NC9=O)C%10=O)CC8)C7)C6)CC5)ncn4)c3c2)CC1` (stereo not shown) [Compound 175, 2-(2,6-dioxo-3-piperidyl)-5-[4-[[2-[[1-[6-[5-(1-methylcyclopropoxy)-1H-indazol-3-yl]pyrimidin-4-yl]-4-piperidyl]methyl]-2,6-diazaspiro[3.3]heptan-6-yl]methyl]-1-piperidyl]isoindoline-1,3-dione], for which the Dmax at wildtype LRRK2 (setting [3]) and on G2019S LRRK2 (setting [4]) was 50 to 70% throughout. The 50% degradation concentration (DC50) on wildtype LRRK2 (setting [3]) and at G2019S LRRK2 (setting [4]) was under 10 nM in each case.
On to `CC1(Oc2ccc3[nH]nc(-c4ccnc(N5CCC(O[C@H]6CC[C@H](OC7CCN(c8ccc9c(c8)C(=O)N(C8CCC(=O)NC8=O)C9=O)CC7)CC6)CC5)c4)c3c2)CC1` (stereo partly shown) [Compound 100, 2-(2,6-dioxopiperidin-3-yl)-5-(4-{[(1r,4r)-4-[(1-{4-[5-(1-methylcyclopropoxy)-1H-indazol-3-yl]pyridin-2-yl}piperidin-4-yl)oxy]cyclohexyl]oxy}piperidin-1-yl)-2,3-dihydro-1H-isoindole-1,3-dione], for which, on wildtype LRRK2 (setting [1]), the greatest degradation seen (Dmax) is under 50% and the DC50 lay within 10 to 50 nM. Moreover, on G2019S LRRK2 (setting [2]), the DC50 was in the range of 10 to 50 nM and the Dmax was in the range of 50 to 70%.
On to `CC1(Oc2ccc3[nH]nc(-c4cc(N5CCO[C@@H](CN6CCC(OC7CCN(c8ccc9c(c8)C(=O)N(C8CCC(=O)NC8=O)C9=O)CC7)CC6)C5)ncn4)c3c2)CC1` (stereo partly drawn) [Compound 149, 2-(2,6-dioxo-3-piperidyl)-5-[4-[[1-[[(2S)-4-[6-[5-(1-methylcyclopropoxy)-1H-indazol-3-yl]pyrimidin-4-yl]morpholin-2-yl]methyl]-4-piperidyl]oxy]-1-piperidyl]isoindoline-1,3-dione], for which, at wildtype LRRK2 (setting [1]), the Dmax is 50 to 70% and the half-maximal degradation concentration (DC50) was in the range of 10 to 50 nM. Further, on G2019S LRRK2 (setting [2]), the DC50 fell in the range of 10 to 50 nM and the greatest degradation seen (Dmax) was 50 to 70%.
In the case of `C[C@H]1CN(c2cc(-c3n[nH]c4ccc(OC5(C)CC5)cc34)ncn2)CCN1CC1CCN(CC2CCN(c3cc4c(cc3F)C(=O)N(C3CCC(=O)NC3=O)C4=O)CC2)CC1` (stereo partly drawn) [Compound 73, 2-(2,6-dioxo-3-piperidyl)-5-fluoro-6-[4-[[4-[[(2S)-2-methyl-4-[6-[5-(1-methylcyclopropoxy)-2H-indazol-3-yl]pyrimidin-4-yl]piperazin-1-yl]methyl]-1-piperidyl]methyl]-1-piperidyl]isoindoline-1,3-dione], on wildtype LRRK2 (setting [1]), the Dmax was under 50% and the DC50 was under 10 nM. On G2019S LRRK2 (setting [2]), the DC50 was under 10 nM and the Dmax is under 50%.
In the case of `CC1(Oc2ccc3n[nH]c(-c4cc(N5CCN(Cc6ccc(CN7CCN(c8ccc9c(c8)C(=O)N(C8CCC(=O)NC8=O)C9=O)CC7)cc6)CC5)ncn4)c3c2)CC1` (stereo not shown) [Compound 169, 2-(2,6-dioxo-3-piperidyl)-5-[4-[[4-[[4-[6-[5-(1-methylcyclopropoxy)-2H-indazol-3-yl]pyrimidin-4-yl]piperazin-1-yl]methyl]phenyl]methyl]piperazin-1-yl]isoindoline-1,3-dione], on wildtype LRRK2 (setting [3]), the Dmax is under 50% and the DC50 was under 10 nM. Further, on G2019S LRRK2 (setting [4]), the DC50 lay within 10 to 50 nM and the Dmax was 50 to 70%.
For `CC1(Oc2ccc3[nH]nc(-c4ccnc(N5CC6(CCN6CC6CCN(CC7CCN(c8ccc9c(c8)C(=O)N(C8CCC(=O)NC8=O)C9=O)CC7)CC6)C5)c4)c3c2)CC1` (stereo not shown) [Compound 163, 2-(2,6-dioxo-3-piperidyl)-5-[4-[[4-[[6-[4-[5-(1-methylcyclopropoxy)-1H-indazol-3-yl]-2-pyridyl]-1,6-diazaspiro[3.3]heptan-1-yl]methyl]-1-piperidyl]methyl]-1-piperidyl]isoindoline-1,3-dione] the same measures were under 50%, 10 to 50 nM, 10 to 50 nM and under 50%.
For the compound `C[C@H]1CN(c2cc(-c3n[nH]c4ccc(OC5(C)CC5)cc34)ncn2)CCN1CC1CCN(CCCNc2cccc3c2CN(C2CCC(=O)NC2=O)C3=O)CC1` (stereo partly drawn) [Compound 142, 3-[4-[3-[4-[[(2S)-2-methyl-4-[6-[5-(1-methylcyclopropoxy)-1H-indazol-3-yl]pyrimidin-4-yl]piperazin-1-yl]methyl]-1-piperidyl]propylamino]-1-oxo-isoindolin-2-yl]piperidine-2,6-dione], at wildtype LRRK2 (setting [1]), the maximal degradation (Dmax) is under 50% and the DC50 lay within 50 to 100 nM. In addition, at G2019S LRRK2 (setting [2]), the half-maximal degradation concentration (DC50) is 10 to 50 nM and the Dmax was under 50%.
As for `CC1(Oc2ccc3[nH]nc(-c4ccnc(N5CCC(Cc6ccc(CC7CCN(c8ccc9c(c8)C(=O)N(C8CCC(=O)NC8=O)C9=O)CC7)cc6)CC5)c4)c3c2)CC1` (stereo not shown) [Compound 173, 2-(2,6-dioxo-3-piperidyl)-5-[4-[[4-[[1-[4-[5-(1-methylcyclopropoxy)-1H-indazol-3-yl]-2-pyridyl]-4-piperidyl]methyl]phenyl]methyl]-1-piperidyl]isoindoline-1,3-dione], the DC50 at wildtype LRRK2 (setting [3]) and at G2019S LRRK2 (setting [4]) was at least 100 nM throughout.
